PMC5681660, “Reduced hepatitis B and D viral entry using clinically applied drugs as novel inhibitors of the bile acid transporter NTCP” (Scientific Reports, 2017)
“Also recorded” adds a separate entry of the source. Read-outs that look alike come from different tables or passages of the source.

Legend:
[1] = WST-1 cytotoxicity, wildtype U2OS cells; details: human; for viability at 2 h, 1 µM / viability at 2 h, 100 µM / viability at 2 h, 10 µM: wildtype U2OS cells
[2] = test system: HDV; assay: HDV infection of HepaRG cells (HDAg immunofluorescence); assay type: cell-based, hepatitis delta virus; details: HDAg positive cells, day 5; concentration-dependent
[3] = test system: HBV; details: for HBV infection in HepaRG cells (in words): HBeAg, HBsAg, HBcAg, concentration-dependent; for number of HBcAg positive stained cells: HepaRG cells, day 10 post HBV infection, 50 µM
[4] = in vitro; details: human
[5] = target: T1, human NTCP (Homo sapiens, UniProt Q14973); assay: Screening taurocholate uptake assay (96-well, [14C]taurocholate, 10 µM drug); details: for Ranking score: ranking over the functional and the binding screening assay; for B-score functional assay: screening taurocholate uptake, 10 µM drug
T1 sequence (Q14973 1-349): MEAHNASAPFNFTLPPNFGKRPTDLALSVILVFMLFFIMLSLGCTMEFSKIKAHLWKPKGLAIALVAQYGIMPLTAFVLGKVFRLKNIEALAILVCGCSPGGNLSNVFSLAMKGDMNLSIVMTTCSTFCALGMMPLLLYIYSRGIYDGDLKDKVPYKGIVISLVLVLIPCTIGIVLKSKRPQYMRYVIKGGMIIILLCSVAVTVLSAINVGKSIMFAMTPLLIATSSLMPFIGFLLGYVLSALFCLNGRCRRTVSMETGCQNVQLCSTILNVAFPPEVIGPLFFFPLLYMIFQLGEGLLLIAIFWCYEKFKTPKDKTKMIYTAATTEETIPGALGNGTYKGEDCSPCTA

[6] = target: T2, mouse NTCP (Mus musculus, UniProt O08705); assay: Taurocholate uptake in U2OS cells transiently transfected with mouse NTCP; assay type: cell-based; details: at the calculated IC50 value for hNTCP
T2 construct: expressed in transfected cells; host or cells: U2OS (transient transfection, PEI)
T2 sequence (O08705 1-362): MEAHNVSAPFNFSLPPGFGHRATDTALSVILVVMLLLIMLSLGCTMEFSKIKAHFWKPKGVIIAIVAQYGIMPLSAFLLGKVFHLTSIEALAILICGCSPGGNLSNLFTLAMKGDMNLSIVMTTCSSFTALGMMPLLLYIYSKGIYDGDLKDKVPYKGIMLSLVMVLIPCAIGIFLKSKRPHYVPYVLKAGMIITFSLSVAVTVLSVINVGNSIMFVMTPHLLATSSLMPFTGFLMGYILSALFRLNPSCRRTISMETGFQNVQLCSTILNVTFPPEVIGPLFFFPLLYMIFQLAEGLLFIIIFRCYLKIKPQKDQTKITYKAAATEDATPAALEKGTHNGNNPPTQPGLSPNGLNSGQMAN
Description: (§1) U2OS and MDCK cells were grown in Dulbecco’s modified Eagle’s medium (DMEM, Sigma-Aldrich), supplemented with 10% FCS (Gibco), 1% L-glutamine (Lonza), and 1% penicillin/streptomycin (Lonza). […] Transient transfection of U2OS cells with mouse NTCP (mNTCP) was done with PEI reagent (Brunschwig, Basel, Switzerland). Shortly, U2OS cells were seeded one day prior to transfection in 24-well plates. On the day of transfection, 0.5 µg DNA was mixed with 100 µl unsupplemented DMEM and 3 µg/µl PEI. After 10–15 minute incubation at RT, 20 µl of the transfection mix was added to each 24-well. Transfected cells were used in further experiments 48–72 hours later. Cell lines were passaged twice a week at a confluence of 80%, and incubated in a humidified atmosphere of 37 °C + 5% CO2.
(§2) For MDCK or MDCK-hASBT cells 70.000 cells/well were plated in 24-well plates, followed by 24 hours 10 mM sodium butyrate (Sigma-Aldrich) stimulation the next day. Cells were used in the inhibition studies 24 hours (U2OS cell lines) or 48 hours (MDCK cell lines) later. Inhibition studies with mNTCP transiently transfected cells were conducted 48–72 hours after transfection.
(§3) Medium was aspirated from the wells and cells were washed once with 250 µL uptake buffer. Subsequently, cells were pre-incubated with drug in 150 µL uptake buffer for 10 minutes at 37 °C. Taurocholate uptake was initiated by addition of 100 µL uptake buffer containing taurocholate (final concentration 10 µM TC spiked with tritium-labeled TC) and cells were incubated for 2 minutes at 37 °C. Subsequently, cells were washed 4 times with ice-cold PBS and lysed with 0.05% SDS in water. Radioactivity was measured by liquid scintillation counting.

[7] = target: T1, human NTCP; assay: Taurocholate uptake inhibition studies in U2OS-HA-hNTCP cells; assay type: cell-based; design: HA; expressed in transfected cells; details: for Taurocholate uptake into U2OS-HA-hNTCP cells (in words): increasing drug concentrations
Description: as §2, §3

[8] = target: T1, human NTCP; assay: Myrcludex B-FITC binding by confocal microscopy in U2OS-HA-hNTCP cells; design: HA; expressed in transfected cells; details: for Myrcludex B-FITC fluorescence / binding to U2OS-HA-hNTCP cells (in words): co-administration with increasing amounts of drug; for ≥50% loss of Myrcludex B binding to hNTCP (concentration): confocal microscopy, 0.2 µM Myrcludex B-FITC, drug 1, 10, 100 µM, concentration at which binding inhibited minimally 50%
Description: After 24 hours, medium was aspirated and cells were washed once with 300 µl Leibovitz’s L-15 Medium (Invitrogen). A 30 minute incubation period followed in which all cells were incubated with 0.2 µM Myrcludex B-FITC with or without drug (1, 10, 100 µM) and Hoechst (1/1000) in 300 µL Leibovitz’s L-15 Medium. Cells were washed twice with Leibovitz’s L-15 Medium and subsequently 400 µL Leibovitz’s L-15 Medium was added. Live cell fluorescent imaging was performed using a Leica SP8X-SMD confocal microscope with fully enclosed incubation at 37 °C. A 63x oil objective was used and images were captured while the cells were consecutively excited at 490 nm (FITC) 350 nm (Hoechst). ImageJ software (National Insititutes of Health, Bethesda, MD) was employed for data analysis.

[9] = test system: U2OS cells; assay: WST-1 cytotoxicity, wildtype U2OS cells; details: U2OS cells, 2 hours
[10] = test system: U2OS-HA-hNTCP cells; details: 2 hours
[11] = target: T3, human ASBT (Homo sapiens, UniProt Q12908); assay: Taurocholate uptake in MDCK-hASBT cells; assay type: cell-based; details: compared with NTCP
T3 construct: expressed in transfected cells; gift of Paul Dawson; induced with sodium butyrate
T3 sequence (Q12908 1-348): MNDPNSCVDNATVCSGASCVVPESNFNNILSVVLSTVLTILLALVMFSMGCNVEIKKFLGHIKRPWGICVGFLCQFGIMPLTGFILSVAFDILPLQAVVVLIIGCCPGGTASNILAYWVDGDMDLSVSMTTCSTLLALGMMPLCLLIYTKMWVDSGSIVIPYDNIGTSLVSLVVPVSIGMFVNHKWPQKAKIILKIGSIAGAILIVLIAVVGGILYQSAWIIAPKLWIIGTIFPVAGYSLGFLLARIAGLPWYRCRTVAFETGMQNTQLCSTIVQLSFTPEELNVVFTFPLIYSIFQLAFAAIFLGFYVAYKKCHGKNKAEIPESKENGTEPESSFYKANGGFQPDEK
Description: as §1, §2, §3

[12] = HepaRG cells infected with HBV, supernatant day 7 to 10
[13] = U2OS-HA-hNTCP cells, concentrations 1 nM to 10 mM, read-out: IC50 for hNTCP-mediated TC uptake

## O=C(O)Cc1cc(I)c(Oc2ccc(O)c(I)c2)c(I)c1 [TRIAC, 3,3′,5-Triiodothyroacetic acid]
[1]
  viability at 2 h, 1 µM: 100 ± 7.5%
  viability at 2 h, 100 µM: 81.6 ± 3.8%
[2]
  HDV infection in HepaRG cells (in words): reduced HBV/HDV infection; also recorded: reduce
[3]
  HBV infection in HepaRG cells (in words): reduced HBV/HDV infection; also recorded: reduce
  number of HBcAg positive stained cells: mild reduction
[4]
  viability at 2 h, 1 µM: 109 ± 4.1%
  viability at 2 h, 10 µM: 105 ± 2.1%
  viability at 2 h, 100 µM: 86.3 ± 4.9%

## CCCCC1=NC2(CCCC2)C(=O)N1Cc1ccc(-c2ccccc2-c2nnn[nH]2)cc1 [irbesartan, reference compound]
[2]
  HDV infection in HepaRG cells (in words): reduce
[3]
  HBV infection in HepaRG cells (in words): reduce
[3]; [12]
  concentration effective in reducing HBeAg and HBsAg production: 17 µM
[5]; 10 µM, both screening assays
  NTCP inhibition in the screen (in words): confirmed NTCP inhibition
[5]; 1280 drugs at 10 µM, TC uptake and Myrcludex B binding screens combined
  position among the hits of the screen (combined ranking of both screening assays): ≤ 150
[5]
  Ranking score: 197.737
  B-score functional assay: -3.733

## Cc1c(Cl)cccc1Nc1ccccc1C(=O)O [Tolfenamic Acid, Tolfenamic acid]
[1]
  viability at 1 µM: 94.7 ± 6.3%
  viability at 10 µM: 105 ± 11.7%
  viability at 100 µM: 82.1 ± 4.8%
[6]
  inhibition of mouse Ntcp-mediated taurocholate uptake compared with human NTCP: inhibited similarly as human NTCP
[4]; U2OS-HA-hNTCP cells
  viability at 2 h, 1 µM: 116 ± 10.3%
  viability at 2 h, 10 µM: 118 ± 13%
  viability at 2 h, 100 µM: 107 ± 12.4%
[7]; [13]
  IC50: 12.5 µM
[7]
  Taurocholate uptake into U2OS-HA-hNTCP cells (in words): reduced in a dose-dependent fashion
[8]
  Myrcludex B-FITC fluorescence / binding to U2OS-HA-hNTCP cells (in words): reduced Myrcludex B-FITC fluorescence
  ≥50% loss of Myrcludex B binding to hNTCP (concentration): ≥100 µM
[8]; listed as tolfenamic acid
  ≥50% loss of Myrcludex B binding to hNTCP (concentration): ≤ 100 µM
[5]
  Ranking score: 28.5657
  B-score functional assay: -4.169

## O=C(O)c1ccccc1Nc1cccc(C(F)(F)F)c1 [Flufenamic Acid, Flufenamic acid]
[1]
  viability at 2 h, 1 µM: 109 ± 9.1%
  viability at 2 h, 10 µM: 108 ± 8.5%
  viability at 2 h, 100 µM: 104 ± 3.6%
[6]
  inhibition of mouse Ntcp-mediated taurocholate uptake compared with human NTCP: more capable of inhibiting mouse Ntcp; also recorded: more potent in inhibiting mouse NTCP
[4]; U2OS-HA-hNTCP cells
  viability at 2 h, 1 µM: 125 ± 15.2%
  viability at 2 h, 10 µM: 118 ± 9.6%
  viability at 2 h, 100 µM: 107 ± 9.6%
[7]; [13]
  IC50: 10 µM
[7]
  Taurocholate uptake into U2OS-HA-hNTCP cells (in words): reduced in a dose-dependent fashion
[8]
  Myrcludex B-FITC fluorescence / binding to U2OS-HA-hNTCP cells (in words): reduced Myrcludex B-FITC fluorescence
  ≥50% loss of Myrcludex B binding to hNTCP (concentration): ≥100 µM
[8]; listed as Flufenamic acid
  ≥50% loss of Myrcludex B binding to hNTCP (concentration): ≤ 100 µM
[5]
  Ranking score: 48.7852
  B-score functional assay: -5.588

## Nc1c2c(nc3ccccc13)CCCC2O.O=C(O)/C=C\C(=O)O (stereo not shown) [Hydroxytacrine Maleate]
[9]; 1 µM
  cell viability by WST-1: 107.6 ± 15.7%
[9]; 10 µM
  cell viability by WST-1: 100.7 ± 7.1%
[9]; 100 µM
  cell viability by WST-1: 95.8 ± 3.9%
[10]; 1 µM
  cell viability by WST-1: 105.6 ± 1.2%
[10]; 10 µM
  cell viability by WST-1: 102 ± 8.3%
[10]; 100 µM
  cell viability by WST-1: 96.7 ± 5.9%
[7]; [13]
  IC50: 4200 µM
[7]; follow-up of TC uptake and Myrcludex B binding
  outcome of follow-up screening of hits found in only one of the two screens: false positives
[7]
  Taurocholate uptake into U2OS-HA-hNTCP cells (in words): not
[8]
  Myrcludex B-FITC fluorescence / binding to U2OS-HA-hNTCP cells (in words): not
  ≥50% loss of Myrcludex B binding to hNTCP (concentration): Not confirmed

## CN(CCOc1ccc(CC2SC(=O)NC2=O)cc1)c1ccccn1 (stereo not shown) [Rosiglitazone]
[1]
  viability at 2 h, 1 µM: 104 ± 7.2%
  viability at 2 h, 10 µM: 107 ± 3.4%
  viability at 2 h, 100 µM: 104 ± 2.5%
[2]
  HDV infection in HepaRG cells (in words): reduced HBV/HDV infection; also recorded: reduce
[6]
  inhibition of mouse Ntcp-mediated taurocholate uptake compared with human NTCP: more capable of inhibiting mouse Ntcp; also recorded: more potent in inhibiting mouse NTCP
[11]
  inhibition of ASBT-mediated taurocholate uptake: inhibited ASBT less effectively and at higher concentrations than observed for NTCP; also recorded: inhibit ASBT in a concentration-dependent fashion
[3]
  HBV infection in HepaRG cells (in words): reduced HBV/HDV infection; also recorded: reduce
  number of HBcAg positive stained cells: severely reduced
[3]; [12]
  concentration effective in reducing HBsAg: ≥ 50 µM
[4]; U2OS-HA-hNTCP cells
  viability at 2 h, 1 µM: 111 ± 4.4%
  viability at 2 h, 10 µM: 106 ± 4.5%
  viability at 2 h, 100 µM: 103 ± 6%
[7]
  IC50: 5.1 µM
